The values that follow come from article PMC9926234, “Iterative computational design and crystallographic screening identifies potent inhibitors targeting the Nsp3 macrodomain of SARS-CoV-2” (Proceedings of the National Academy of Sciences of the …, 2023).

Values joined by “and” are separate entries in the source; they are usually repeats but may differ in a detail not shown here. Equal entries are not always repeated. Where two headings read alike, the source gives them in different places. A value given as a limit tells only on which side of the number the result lay.

Common to all, as to format: binding
The target of test [1] is T1, SARS-CoV-2 NSP3 Mac1 (Severe acute respiratory syndrome coronavirus 2, UniProt P0DTD1). As to the kind of experiment: biochemical. The settings on record: for IC50: read-out: IC50; for Ki: Ki estimation from HTRF-derived IC50, Cheng-Prusoff, peptide 400nM, Kd 2.68µM, read-out: Ki***.
Test [2] addresses T1, SARS-CoV-2 NSP3 Mac1. The settings on record: for Refined occupancy: ligand occupancy after refinement (phenix.refine).
Test [3] has as its target T1, SARS-CoV-2 NSP3 Mac1. Also noted: contains a conserved macrodomain enzyme (Mac1). As to conditions: for Spearman est (compound concentration vs apparent Tm): DSF dose responsiveness, 1 µM nsp3 mac1, adj p given. Summed up:
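ΔTma values are thermal shifts relative to a co-located DMSO-only control, read with 5 µM Fluorescent Yellow dye. Each compound was tested in triplicate over seven concentrations (two-fold steps, top 1,000 or 100 μM). Spearman correlation of concentration versus ΔTma tested whether the shift was dose-responsive.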

Setting [4] is: HTRF ADPr-peptide displacement from SARS-CoV-2 Mac1.
Setting [5] is: HTRF, several values in a cell are separate determinations.
[6] abbreviates: PanDDA 1-BDC (background density correction) of the event, crystal soak 100 mM, PanDDA run dmso_34.
[7] abbreviates: PanDDA event map, 1 minus background density correction, crystal soaking of Mac1.
The mark [8] stands for this setting: crystal soak, compound concentration 100 mM, PanDDA run dmso_34, series docking_lead-like_1.
Setting [9] is: ligand modeled in the crystal structure, crystal soak 100 mM, PanDDA run dmso_34.
Setting [10] is: overall hit flag: binding in crystallographic soaking or the HTRF-based binding assay.
The mark [11] stands for this setting: maximal thermal upshift vs DMSO control.
Where [12] appears, read: PanDDA 1-BDC value of the event, crystal soak, compound concentration 100 mM, per dataset.
[13] abbreviates: crystal soak, compound concentration 100 mM, per dataset.
The mark [14] stands for this setting: ligand modeled from this dataset, compound concentration 100 mM, Echo dispense volume 40 or 80 nl.
[15] abbreviates: true hit = binding in crystallographic soaking or the HTRF-based binding assay.
[16] abbreviates: ligand modeled in the crystal structure, crystal soak, compound concentration 100 mM, per dataset.

A word on the IC50: it is the concentration needed to halve the response being measured. Broadly, the Ki is a dissociation constant, usually derived from enzyme kinetics or from competition with a known ligand. Take `O=S1(=O)CCC2(CCCN(c3ncnc4[nH]ccc34)C2)C1` (stereo not shown) [Z4305]: the IC50 on SARS-CoV-2 NSP3 Mac1 [1] (setting [4]) and at SARS-CoV-2 NSP3 Mac1 [1] (setting [5]) was 170 µM each time. Further, the Ki on SARS-CoV-2 NSP3 Mac1 [1] was 148 µM. Also, the 1-BDC on SARS-CoV-2 NSP3 Mac1 [2] (setting [6]) and at SARS-CoV-2 NSP3 Mac1 [2] (setting [7]) was 0.38 in each case. Further, the “PanDDA hit?” value on SARS-CoV-2 NSP3 Mac1 [2] (setting [8]) is on record as “TRUE”. For the same compound, the “Modeled?” value on SARS-CoV-2 NSP3 Mac1 [2] (setting [9]) is “TRUE”. The compound further yielded a Refined occupancy at SARS-CoV-2 NSP3 Mac1 [2] (crystal soaking of Mac1) of 76. Moreover, the “HIT*” value at SARS-CoV-2 NSP3 Mac1 [2] (setting [10]) is listed as “Y”. In addition, at SARS-CoV-2 NSP3 Mac1 [3], the “Spearman est (compound concentration vs apparent Tm)” value stood at 0.77. Besides, the “DSF max dTma” value at SARS-CoV-2 NSP3 Mac1 [3] (setting [11]) was determined as 1.26 °C.

Turning to `O=C(Nc1ccc(C(=O)NCc2c(C(=O)O)sc3ccccc23)cc1)NC1CC1` [Z8539_0025], the IC50 at SARS-CoV-2 NSP3 Mac1 [1] (setting [4]) came out at 20 µM; on SARS-CoV-2 NSP3 Mac1 [1] (HTRF), 20.4 µM. For the same compound, on SARS-CoV-2 NSP3 Mac1 [1], the Ki was 17.8 µM. In addition, the 1-BDC on SARS-CoV-2 NSP3 Mac1 [2] (setting [12]) and on SARS-CoV-2 NSP3 Mac1 [2] (setting [7]) was 0.24 throughout. The “PanDDA hit?” value at SARS-CoV-2 NSP3 Mac1 [2] (setting [13]) is listed as “TRUE”. The “Modeled?” value on SARS-CoV-2 NSP3 Mac1 [2] (setting [14]) is “TRUE”. At SARS-CoV-2 NSP3 Mac1 [2] (crystal soaking of Mac1), this compound returned a Refined occupancy of 48. On SARS-CoV-2 NSP3 Mac1 [2] (setting [15]), the “HIT*” value was “Y”. Further, the “Spearman est (compound concentration vs apparent Tm)” value on SARS-CoV-2 NSP3 Mac1 [3] came out at 0.17. At SARS-CoV-2 NSP3 Mac1 [3] (maximal thermal upshift), the “DSF max dTma” value was 0.91 ˚C.

`O=C(Nc1ccc(C(=O)NC2c3ccccc3CC2C(=O)O)cc1)NC1CC1` (stereo not shown) [8539_0029]: the inhibition constant Ki on SARS-CoV-2 NSP3 Mac1 [1] is 4.2 µM. The results for the 1-BDC on SARS-CoV-2 NSP3 Mac1 [2] (setting [12]) and at SARS-CoV-2 NSP3 Mac1 [2] (setting [7]) were 0.13 and 0.11, respectively. The “PanDDA hit?” value on SARS-CoV-2 NSP3 Mac1 [2] (setting [13]) was “TRUE”. Also, the “Modeled?” value at SARS-CoV-2 NSP3 Mac1 [2] (setting [14]) is given as “TRUE”. The Refined occupancy on SARS-CoV-2 NSP3 Mac1 [2] (crystal soaking of Mac1) turned out to be 22. Besides, at SARS-CoV-2 NSP3 Mac1 [2] (setting [15]), the “HIT*” value is “Y”. The “Spearman est (compound concentration vs apparent Tm)” value on SARS-CoV-2 NSP3 Mac1 [3] came to 0.73. Also, the “DSF max dTma” value on SARS-CoV-2 NSP3 Mac1 [3] (maximal thermal upshift) is given as 3.66 ˚C.

In the case of `CC(O)CNc1cc(N2CC3(CCC3)C(F)(C(=O)O)C2)ncn1` (stereo not shown) [Z5722], on SARS-CoV-2 NSP3 Mac1 [1] (setting [4]), the IC50 is 464 µM and 460 µM. Moreover, on SARS-CoV-2 NSP3 Mac1 [1], the Ki was 404 µM. The 1-BDC at SARS-CoV-2 NSP3 Mac1 [2] (PanDDA event map background density correction, crystal soak, Compound_concentration 100 mM, PanDDA run dmso_34) was 0.18; at SARS-CoV-2 NSP3 Mac1 [2] (setting [7]) it was 0.18. For the same compound, the “PanDDA hit?” value at SARS-CoV-2 NSP3 Mac1 [2] (crystal soak, Compound_concentration 100 mM, Echo dispense 40 nl, PanDDA run dmso_34) is “TRUE”. For the same compound, the “Modeled?” value at SARS-CoV-2 NSP3 Mac1 [2] (ligand modeled in crystal structure, crystal soak, Compound_concentration 100 mM, PanDDA run dmso_34) is “TRUE”. Besides, the Refined occupancy on SARS-CoV-2 NSP3 Mac1 [2] (crystal soaking of Mac1) is listed as 36. Besides, the “HIT*” value on SARS-CoV-2 NSP3 Mac1 [2] (setting [10]) is reported as “Y”. The “Spearman est (compound concentration vs apparent Tm)” value on SARS-CoV-2 NSP3 Mac1 [3] came to 0.59. Further, the “DSF max dTma” value on SARS-CoV-2 NSP3 Mac1 [3] (setting [11]) was found to be 0.96 °C.

For the compound `COC(=O)Nc1ccc(C(=O)NC2c3ccccc3CC2C(=O)O)cc1` (stereo not shown) [Z8531], at SARS-CoV-2 NSP3 Mac1 [1] (setting [4]), the IC50 was more than 250 µM. For the same compound, the 1-BDC at SARS-CoV-2 NSP3 Mac1 [2] (setting [12]) and at SARS-CoV-2 NSP3 Mac1 [2] (setting [7]) was 0.04 throughout. In addition, the “PanDDA hit?” value on SARS-CoV-2 NSP3 Mac1 [2] (setting [13]) is on record as “TRUE”. The “Modeled?” value on SARS-CoV-2 NSP3 Mac1 [2] (setting [16]) is reported as “TRUE”. Further, on SARS-CoV-2 NSP3 Mac1 [2] (crystal soaking of Mac1), the Refined occupancy is given as 8. Further, on SARS-CoV-2 NSP3 Mac1 [2] (setting [10]), the “HIT*” value is listed as “Y”. Moreover, the “Spearman est (compound concentration vs apparent Tm)” value on SARS-CoV-2 NSP3 Mac1 [3] is 0.72. The “DSF max dTma” value at SARS-CoV-2 NSP3 Mac1 [3] (setting [11]) was 0.6 °C.

As for `C[C@@H]1CN(c2ncnc3[nH]c4ccccc4c23)C[C@@H](CO)O1` [Z6923], the IC50 was 416 µM and ≤ 90 µM at SARS-CoV-2 NSP3 Mac1 [1] (setting [4]); 416 µM on SARS-CoV-2 NSP3 Mac1 [1] (setting [5]). Besides, the Ki at SARS-CoV-2 NSP3 Mac1 [1] was 362 µM. The compound also registered a 1-BDC at SARS-CoV-2 NSP3 Mac1 [2] (setting [7]) of 0.1. For the same compound, the “Modeled?” value on SARS-CoV-2 NSP3 Mac1 [2] (ligand modeled in structure, crystal soak, Compound_concentration 100 mM) is recorded as “TRUE”. This compound came in with a Refined occupancy at SARS-CoV-2 NSP3 Mac1 [2] (crystal soaking of Mac1) of 20. Further, the “HIT*” value on SARS-CoV-2 NSP3 Mac1 [2] (setting [10]) was “Y”. Moreover, the “Spearman est (compound concentration vs apparent Tm)” value on SARS-CoV-2 NSP3 Mac1 [3] worked out at 0.28. Moreover, the “DSF max dTma” value at SARS-CoV-2 NSP3 Mac1 [3] (setting [11]) was 0.46 °C.

`CCc1c[nH]c2ncnc(N3CCCC(Cc4nc(C)no4)C3)c12` (stereo not shown) [Z5531]: the IC50 on SARS-CoV-2 NSP3 Mac1 [1] (setting [4]) and on SARS-CoV-2 NSP3 Mac1 [1] (setting [5]) was 148 µM throughout. On SARS-CoV-2 NSP3 Mac1 [1], the Ki is 129 µM. Further, the 1-BDC on SARS-CoV-2 NSP3 Mac1 [2] (setting [6]) and at SARS-CoV-2 NSP3 Mac1 [2] (setting [7]) was 0.2 each time. Besides, on SARS-CoV-2 NSP3 Mac1 [2] (setting [8]), the “PanDDA hit?” value is recorded as “TRUE”. Further, the “Modeled?” value at SARS-CoV-2 NSP3 Mac1 [2] (setting [9]) is reported as “TRUE”. On SARS-CoV-2 NSP3 Mac1 [2] (crystal soaking of Mac1), this compound came in with a Refined occupancy of 40. Also, the “HIT*” value on SARS-CoV-2 NSP3 Mac1 [2] (setting [10]) is on record as “Y”. Moreover, at SARS-CoV-2 NSP3 Mac1 [3], the “Spearman est (compound concentration vs apparent Tm)” value was found to be 0.68. In addition, the “DSF max dTma” value on SARS-CoV-2 NSP3 Mac1 [3] (setting [11]) amounted to 0.6 °C.

Consider `O=C(NC1c2ccccc2CC1C(=O)O)c1ccc(NC(=O)C2CC2)cc1` (stereo not shown) [Z9604], for which the IC50 on SARS-CoV-2 NSP3 Mac1 [1] (setting [4]) was more than 250 µM. Moreover, the 1-BDC on SARS-CoV-2 NSP3 Mac1 [2] (setting [12]) and at SARS-CoV-2 NSP3 Mac1 [2] (setting [7]) was 0.04 throughout. The “PanDDA hit?” value on SARS-CoV-2 NSP3 Mac1 [2] (setting [13]) is “TRUE”. Further, the “Modeled?” value on SARS-CoV-2 NSP3 Mac1 [2] (setting [16]) was “TRUE”. Also, the Refined occupancy at SARS-CoV-2 NSP3 Mac1 [2] (crystal soaking of Mac1) is on record as 8. On SARS-CoV-2 NSP3 Mac1 [2] (setting [10]), the “HIT*” value is given as “Y”. Besides, the “Spearman est (compound concentration vs apparent Tm)” value on SARS-CoV-2 NSP3 Mac1 [3] is 0.76. Also, the “DSF max dTma” value on SARS-CoV-2 NSP3 Mac1 [3] (setting [11]) worked out at 0.79 °C.
